Holding throughout (experiment): biochemical
Holding throughout (design): KINOMEscan active-site competition binding panel (468 kinase assays), per cent of control at 1000 nM
What all share (conditions): KINOMEscan per cent of control (binding competition); read-out: Percent Control

One experiment deals with BRAF(V600E) (Homo sapiens, UniProt P15056, V600E). From the text: (§1) Figure S7 / Percent Control
The target of the next experiment is FGFR1 (Homo sapiens, UniProt P11362).
Text: as §1

The next experiment concerns the target SLK (Homo sapiens, UniProt Q9H2G2).
Text: as §1

A further experiment deals with CAMK1G (Homo sapiens, UniProt Q96NX5).
Chain of CAMK1G (Q96NX5 whole entry): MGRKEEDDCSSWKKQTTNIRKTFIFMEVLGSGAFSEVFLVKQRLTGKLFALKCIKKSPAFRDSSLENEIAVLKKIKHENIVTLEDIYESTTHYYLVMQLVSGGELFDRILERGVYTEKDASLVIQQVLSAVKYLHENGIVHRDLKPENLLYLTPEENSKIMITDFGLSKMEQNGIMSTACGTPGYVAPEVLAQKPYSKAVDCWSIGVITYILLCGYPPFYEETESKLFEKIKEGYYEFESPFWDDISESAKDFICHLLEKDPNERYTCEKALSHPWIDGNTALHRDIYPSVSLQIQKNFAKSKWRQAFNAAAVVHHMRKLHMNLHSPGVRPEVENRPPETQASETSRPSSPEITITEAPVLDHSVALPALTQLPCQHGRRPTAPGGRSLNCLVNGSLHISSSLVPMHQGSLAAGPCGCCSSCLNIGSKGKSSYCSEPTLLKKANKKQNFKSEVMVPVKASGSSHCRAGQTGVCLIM
Text: as §1

For another experiment, the target named is T1, PKAC-alpha (Homo sapiens, UniProt P17612).
T1 construct: gene PRKACA
Text: as §1

The next experiment has as its target PKMYT1 (Homo sapiens, UniProt Q99640).
Text: as §1

In the next experiment the target is ROS1 (Homo sapiens, UniProt P08922).
Text: as §1

Experiment [1] concerns the target T2, ABL1(H396P)-nonphosphorylated (Homo sapiens, UniProt P00519, H396P).
T2 construct: nonphosphorylated
Text: as §1

A further experiment addresses MYO3B (Homo sapiens, UniProt Q8WXR4).
Text: as §1

In the next experiment the target is T3, YANK1 (Homo sapiens, UniProt Q8WU08).
T3 construct: gene STK32A
T3 sequence (Q8WU08 whole entry): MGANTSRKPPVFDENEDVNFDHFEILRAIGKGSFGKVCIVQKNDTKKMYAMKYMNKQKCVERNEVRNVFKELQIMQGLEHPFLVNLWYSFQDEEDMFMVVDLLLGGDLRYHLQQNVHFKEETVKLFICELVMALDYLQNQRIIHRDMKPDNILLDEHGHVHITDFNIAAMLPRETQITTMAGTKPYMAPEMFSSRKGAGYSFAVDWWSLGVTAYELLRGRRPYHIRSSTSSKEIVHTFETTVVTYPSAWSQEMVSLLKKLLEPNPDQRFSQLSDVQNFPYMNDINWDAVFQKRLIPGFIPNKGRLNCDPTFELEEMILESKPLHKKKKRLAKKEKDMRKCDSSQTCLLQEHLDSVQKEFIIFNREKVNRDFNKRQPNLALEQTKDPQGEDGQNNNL
Text: as §1

The target of the next experiment is T4, DCAMKL1 (Homo sapiens, UniProt O15075).
T4 construct: gene DCLK1
Text: as §1

The next experiment deals with FLT3(D835V) (Homo sapiens, UniProt P36888, D835V).
Text: as §1

The next experiment deals with CDK8 (Homo sapiens, UniProt P49336).
Chain of CDK8 (P49336 whole entry): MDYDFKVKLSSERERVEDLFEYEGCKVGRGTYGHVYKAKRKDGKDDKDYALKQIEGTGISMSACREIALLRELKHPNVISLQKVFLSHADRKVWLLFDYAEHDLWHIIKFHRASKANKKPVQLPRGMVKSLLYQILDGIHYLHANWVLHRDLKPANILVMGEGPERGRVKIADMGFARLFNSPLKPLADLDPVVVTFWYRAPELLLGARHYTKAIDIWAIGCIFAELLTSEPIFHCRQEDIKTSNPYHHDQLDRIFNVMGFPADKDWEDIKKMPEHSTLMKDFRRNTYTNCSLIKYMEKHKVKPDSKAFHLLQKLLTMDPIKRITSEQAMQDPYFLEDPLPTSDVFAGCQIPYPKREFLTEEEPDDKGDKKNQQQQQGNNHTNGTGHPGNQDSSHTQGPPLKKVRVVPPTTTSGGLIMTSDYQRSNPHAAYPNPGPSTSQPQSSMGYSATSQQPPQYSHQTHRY
Text: as §1

The target in another experiment is T5, ERK1 (Homo sapiens, UniProt P27361).
T5 construct: gene MAPK3
T5 sequence (P27361 whole entry): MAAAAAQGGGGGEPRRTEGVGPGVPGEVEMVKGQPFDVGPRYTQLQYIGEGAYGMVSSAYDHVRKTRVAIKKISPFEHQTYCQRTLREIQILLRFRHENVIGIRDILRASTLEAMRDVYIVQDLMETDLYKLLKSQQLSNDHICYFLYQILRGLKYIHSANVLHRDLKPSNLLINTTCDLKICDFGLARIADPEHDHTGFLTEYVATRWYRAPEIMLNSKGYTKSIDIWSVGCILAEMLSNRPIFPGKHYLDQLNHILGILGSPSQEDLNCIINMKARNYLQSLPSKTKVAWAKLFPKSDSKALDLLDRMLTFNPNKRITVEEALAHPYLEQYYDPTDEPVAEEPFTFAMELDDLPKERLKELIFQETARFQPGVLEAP
Text: as §1

Another experiment concerns the target T6, YSK4 (Homo sapiens, UniProt Q56UN5).
T6 construct: gene MAP3K19
Text: as §1

Another experiment has as its target MYLK4 (Homo sapiens, UniProt Q86YV6).
Text: as §1

The target in a further experiment is T7, DCAMKL2 (Homo sapiens, UniProt Q8N568).
T7 construct: gene DCLK2
Text: as §1

The target of a further experiment is CAMK2A (Homo sapiens, UniProt Q9UQM7).
Chain of CAMK2A (Q9UQM7 whole entry): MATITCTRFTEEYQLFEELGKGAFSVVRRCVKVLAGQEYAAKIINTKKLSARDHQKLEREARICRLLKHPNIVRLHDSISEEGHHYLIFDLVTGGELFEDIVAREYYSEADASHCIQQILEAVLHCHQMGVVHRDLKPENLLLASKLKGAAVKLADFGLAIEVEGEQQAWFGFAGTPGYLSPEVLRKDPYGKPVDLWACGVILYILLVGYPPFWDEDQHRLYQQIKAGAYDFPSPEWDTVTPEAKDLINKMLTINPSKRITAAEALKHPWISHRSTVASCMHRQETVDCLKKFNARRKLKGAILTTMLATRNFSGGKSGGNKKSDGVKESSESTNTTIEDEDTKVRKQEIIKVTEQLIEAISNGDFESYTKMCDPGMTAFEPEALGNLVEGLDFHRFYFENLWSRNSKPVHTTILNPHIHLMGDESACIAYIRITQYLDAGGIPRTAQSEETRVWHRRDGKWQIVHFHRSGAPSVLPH
Text: as §1

A further experiment concerns the target GRK2 (Homo sapiens, UniProt P25098).
Text: as §1

The target of another experiment is MET(Y1235D) (Homo sapiens, UniProt P08581, Y1235D).
Text: as §1

A further experiment has as its target MARK3 (Homo sapiens, UniProt P27448).
Text: as §1

The target of a further experiment is T8, ADCK3 (Homo sapiens, UniProt Q8NI60).
T8 construct: gene COQ8A
T8 sequence (Q8NI60 whole entry): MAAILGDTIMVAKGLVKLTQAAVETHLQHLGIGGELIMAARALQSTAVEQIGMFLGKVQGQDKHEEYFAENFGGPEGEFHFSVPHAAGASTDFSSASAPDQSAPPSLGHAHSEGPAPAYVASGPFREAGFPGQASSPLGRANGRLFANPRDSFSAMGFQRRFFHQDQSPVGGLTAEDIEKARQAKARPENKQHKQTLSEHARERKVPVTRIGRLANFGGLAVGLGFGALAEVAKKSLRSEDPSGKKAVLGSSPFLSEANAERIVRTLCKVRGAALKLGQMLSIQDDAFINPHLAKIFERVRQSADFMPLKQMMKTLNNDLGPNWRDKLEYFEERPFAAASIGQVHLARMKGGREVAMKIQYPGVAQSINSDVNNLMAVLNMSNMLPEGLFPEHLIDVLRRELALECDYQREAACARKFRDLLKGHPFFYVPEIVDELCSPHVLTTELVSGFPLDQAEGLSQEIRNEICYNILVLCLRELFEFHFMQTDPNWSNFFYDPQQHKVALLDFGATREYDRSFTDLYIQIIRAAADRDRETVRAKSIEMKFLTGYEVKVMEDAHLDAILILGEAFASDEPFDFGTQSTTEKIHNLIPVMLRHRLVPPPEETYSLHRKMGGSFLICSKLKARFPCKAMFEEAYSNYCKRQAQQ
Text: as §1

A further experiment has as its target CDK5 (Homo sapiens, UniProt Q00535).
Text: as §1

A further experiment has as its target T9, FAK (Homo sapiens, UniProt Q05397).
T9 construct: gene PTK2
Text: as §1

Chain of MYLK4 (Q86YV6 whole entry): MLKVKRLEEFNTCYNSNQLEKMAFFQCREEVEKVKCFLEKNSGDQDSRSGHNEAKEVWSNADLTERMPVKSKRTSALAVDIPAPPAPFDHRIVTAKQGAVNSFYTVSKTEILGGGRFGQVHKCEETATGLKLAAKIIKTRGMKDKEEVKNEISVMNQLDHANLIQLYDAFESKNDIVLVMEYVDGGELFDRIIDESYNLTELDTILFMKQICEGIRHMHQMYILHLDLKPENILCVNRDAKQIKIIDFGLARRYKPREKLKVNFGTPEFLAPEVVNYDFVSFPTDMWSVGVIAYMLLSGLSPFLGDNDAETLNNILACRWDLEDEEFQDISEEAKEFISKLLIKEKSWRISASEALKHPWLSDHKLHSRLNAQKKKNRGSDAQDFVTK
Chain of GRK2 (P25098 whole entry): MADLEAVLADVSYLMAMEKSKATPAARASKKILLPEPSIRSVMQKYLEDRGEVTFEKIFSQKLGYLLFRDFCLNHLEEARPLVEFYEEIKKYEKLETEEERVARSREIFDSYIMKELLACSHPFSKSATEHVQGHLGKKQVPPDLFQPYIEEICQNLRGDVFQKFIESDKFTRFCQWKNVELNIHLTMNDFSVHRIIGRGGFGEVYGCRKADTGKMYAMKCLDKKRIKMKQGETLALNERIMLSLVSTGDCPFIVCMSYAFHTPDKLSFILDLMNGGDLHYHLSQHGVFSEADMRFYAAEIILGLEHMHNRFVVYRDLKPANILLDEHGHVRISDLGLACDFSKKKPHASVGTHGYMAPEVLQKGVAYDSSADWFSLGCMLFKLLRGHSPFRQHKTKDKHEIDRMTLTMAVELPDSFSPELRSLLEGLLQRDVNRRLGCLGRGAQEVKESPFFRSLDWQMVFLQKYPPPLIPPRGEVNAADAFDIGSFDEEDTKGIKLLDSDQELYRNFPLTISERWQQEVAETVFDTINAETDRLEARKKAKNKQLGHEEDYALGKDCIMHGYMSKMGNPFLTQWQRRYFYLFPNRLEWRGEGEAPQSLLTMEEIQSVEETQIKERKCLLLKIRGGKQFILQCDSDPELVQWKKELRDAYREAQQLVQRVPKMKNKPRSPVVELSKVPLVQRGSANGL
Chain of MARK3 (P27448 whole entry): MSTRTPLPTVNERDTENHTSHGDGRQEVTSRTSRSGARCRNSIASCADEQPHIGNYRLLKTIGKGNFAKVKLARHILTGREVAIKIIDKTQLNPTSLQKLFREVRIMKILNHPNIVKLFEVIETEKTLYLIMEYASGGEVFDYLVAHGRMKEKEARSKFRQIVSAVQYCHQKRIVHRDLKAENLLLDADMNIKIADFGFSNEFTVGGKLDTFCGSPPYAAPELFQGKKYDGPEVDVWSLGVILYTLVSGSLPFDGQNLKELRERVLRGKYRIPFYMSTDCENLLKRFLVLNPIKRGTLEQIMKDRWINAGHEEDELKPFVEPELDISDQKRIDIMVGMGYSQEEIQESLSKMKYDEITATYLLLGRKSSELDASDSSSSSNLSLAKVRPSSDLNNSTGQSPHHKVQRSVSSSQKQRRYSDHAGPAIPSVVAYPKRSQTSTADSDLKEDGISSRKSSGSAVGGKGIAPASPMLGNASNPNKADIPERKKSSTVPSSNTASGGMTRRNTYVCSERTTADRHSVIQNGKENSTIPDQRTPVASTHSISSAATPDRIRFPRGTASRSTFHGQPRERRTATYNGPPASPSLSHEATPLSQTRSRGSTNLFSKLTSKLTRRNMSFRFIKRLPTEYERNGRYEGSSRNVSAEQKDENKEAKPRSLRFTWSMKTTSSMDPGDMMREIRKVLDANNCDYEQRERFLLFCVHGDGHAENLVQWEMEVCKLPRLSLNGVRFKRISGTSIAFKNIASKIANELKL
Chain of CDK5 (Q00535 whole entry): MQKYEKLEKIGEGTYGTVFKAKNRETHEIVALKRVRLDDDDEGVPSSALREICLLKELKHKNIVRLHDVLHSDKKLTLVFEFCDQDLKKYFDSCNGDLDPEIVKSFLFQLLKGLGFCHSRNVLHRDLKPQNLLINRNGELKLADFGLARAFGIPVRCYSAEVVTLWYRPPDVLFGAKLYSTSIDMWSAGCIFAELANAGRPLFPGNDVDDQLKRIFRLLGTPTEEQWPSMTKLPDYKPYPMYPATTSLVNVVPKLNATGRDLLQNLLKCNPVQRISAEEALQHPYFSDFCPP

Take `Cn1c(=O)[nH]c2ccc(-c3cccc(C(=O)NC4CCn5ccnc5C4)c3)cc21` (stereo not drawn) [Z36-MP5]: the remaining binding at 1 µM came out at 89% on BRAF(V600E); 55% on FGFR1; 100% at SLK; 99% at CAMK1G; 85% at PKAC-alpha; 93% at PKMYT1. Moreover, the remaining binding at 1 µM on ROS1 stood at 51%; in [1] it was 69%; on MYO3B, 91%; at YANK1 it was 95%; on DCAMKL1, 53%; on FLT3(D835V) it was 55%. The remaining binding at 1 µM at CDK8 is 55%; on ERK1, 98%; on YSK4, 85%; on MYLK4 it was 93%; on DCAMKL2, 90%; at CAMK2A, 87%. Moreover, the remaining binding at 1 µM on GRK2 was 83%; on MET(Y1235D), 93%; on MARK3 it was 100%; on ADCK3, 39%; at CDK5 it was 55%; at FAK, 88%.

For the origin of these results see article PMC10924921, “Mi-2β promotes immune evasion in melanoma by activating EZH2 methylation” (Nature Communications, 2024).
